Experiments:
Format in all cases: cell-based
[1] = target: T1, B2-AR (β2 adrenergic receptor) (Homo sapiens, UniProt P07550); assay: cAMP homogeneous time-resolved fluorescence (HTRF) assay, β2
T1 construct: expressed in transfected cells
Experimental: (§1) CAMP homogeneous time-resolved fluorescence (HTRF): experimental methods. Compound efficacy is determined using the CAMP Gs dynamic HTRF assay (Cisbio, catalog #62AM4PEC) largely following the manufacturer's instructions, also detailed below.
(§2) Standard serial dilution curves are 10-point, 5-fold dilutions starting from a highest concentration of 10 μM. […] Assay plates are centrifuged at 500×g for 10 seconds. Compounds and IBMX are prepared at 2× final dose to compensate for addition of cells. […]
(§3) Subsequently, 5 μL Anti-cAMP-Eu Donor, diluted 1:21 in detection and lysis buffer 2, was added to cells. […] Plates are centrifuged again at 500×g for 10 seconds, and HTRF was measured using a Tecan Spark plate reader at 50 flashes per well. […] Potency estimates (EC50 and pEC50) are derived from the four-parameter nonlinear regression of the concentration-effect curve and an estimate of relative efficacy is determined by comparing the magnitude of the test compound HTRF signal window (min-max dose) with the signal window of the full agonist control, isoproterenol.

[2] = target: T2, B1-AR (β1 adrenergic receptor) (Homo sapiens, UniProt P08588); assay: cAMP homogeneous time-resolved fluorescence (HTRF) assay, β1
T2 construct: expressed in transfected cells
T2 sequence (P08588 whole entry): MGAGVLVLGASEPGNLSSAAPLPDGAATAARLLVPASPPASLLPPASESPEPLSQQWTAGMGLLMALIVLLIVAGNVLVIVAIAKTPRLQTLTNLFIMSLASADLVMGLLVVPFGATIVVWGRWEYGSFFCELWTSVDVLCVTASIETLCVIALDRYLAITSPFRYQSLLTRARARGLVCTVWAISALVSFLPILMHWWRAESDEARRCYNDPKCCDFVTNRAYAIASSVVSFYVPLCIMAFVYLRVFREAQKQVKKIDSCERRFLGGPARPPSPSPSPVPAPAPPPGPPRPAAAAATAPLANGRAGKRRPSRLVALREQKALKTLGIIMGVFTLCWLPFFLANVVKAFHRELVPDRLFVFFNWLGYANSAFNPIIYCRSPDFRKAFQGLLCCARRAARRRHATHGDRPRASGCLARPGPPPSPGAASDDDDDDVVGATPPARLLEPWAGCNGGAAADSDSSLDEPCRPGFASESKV
Experimental: as §1, §2, §3

[3] = system: Endogenous beta-adrenergic receptor, 1321N1 cells; assay: cAMP homogeneous time-resolved fluorescence (HTRF) assay, endogenous receptor; settings: 30 min, 37 °C
Experimental: as §1
Compound Preparation: Candidate beta-adrenergic compounds, dissolved to 10 mM in DMSO, are diluted in 1× stimulation buffer 1 (Cisbio Part #64Sβ1FDD) containing 1 mM 3-Isobutyl-1-methylxanthene (IBMX; Cayman Chemical Company, catalog #13347). Serial dilutions are made in a 96 well V-bottom polypropylene compound microplate (Corning, catalog #3363) in stimulation buffer containing 1 mM IBMX, to 2× of the final desired concentration. Standard serial dilution curves are 10-point, 5-fold dilutions starting from a highest concentration of 10 μM. Controls present on every assay plate are 0.1% DMSO (vehicle control), 1 μM isoproterenol (full beta-adrenergic agonist control) and 15 μM xamoterol (partial beta-adrenergic agonist control). 5 μL from the 2× compound plate is stamped into a white 384 round well small volume HiBase assay plate (Greiner Bio-One; catalog #784075) to provide 4 technical replicates per concentration, per compound. Assay plates are centrifuged at 500×g for 10 seconds. Compounds and IBMX are prepared at 2× final dose to compensate for addition of cells.
Cell Preparation: 1× stimulation buffer, washing PBS (Dulbecco's phosphate-buffered saline, —Mg—Ca; Caisson Labs, catalog #PBL01), assay PBS (Dulbecco's phosphate-buffered saline, +Mg, +Ca; Caisson Labs, catalog #PBL02) and Versene (0.02% EDTA disodium salt solution in PBS without calcium or magnesium; Caisson Labs, catalog #EDL01) are pre-warmed to 37 °C Cells expressing beta-adrenergic receptor were washed in washing PBS to remove growth medium and then released from the surface by incubating with Versene for 5-10 minutes at 37 °C. Cells are harvested using assay PBS, counted manually by hemocytometer or by an automated cell counter, pelleted by centrifugation (200×g, 5 minutes) and resuspended in 37 °C. 1× stimulation buffer to a final density of 1.5×10^6 cells/mL. […]
HTRF Reagent Addition, Reading and Data Analysis: After 30 minutes of cell stimulation with test compound, the assay plates are centrifuged at 500×g for 10 seconds, and incubation was stopped with the addition of 5 μL cAMP-D2 acceptor, diluted 1:21 in detection and lysis buffer 2 (Cisbio 62CL2FDF) was added to all cells. […] Plates are centrifuged again at 500×g for 10 seconds, and HTRF was measured using a Tecan Spark plate reader at 50 flashes per well. HTRF ratios (665 nm/620 nm×10,000) are determined and plotted in GraphPad Prism to generate a concentration-effect curve. […]

T1 sequence (P07550 whole entry): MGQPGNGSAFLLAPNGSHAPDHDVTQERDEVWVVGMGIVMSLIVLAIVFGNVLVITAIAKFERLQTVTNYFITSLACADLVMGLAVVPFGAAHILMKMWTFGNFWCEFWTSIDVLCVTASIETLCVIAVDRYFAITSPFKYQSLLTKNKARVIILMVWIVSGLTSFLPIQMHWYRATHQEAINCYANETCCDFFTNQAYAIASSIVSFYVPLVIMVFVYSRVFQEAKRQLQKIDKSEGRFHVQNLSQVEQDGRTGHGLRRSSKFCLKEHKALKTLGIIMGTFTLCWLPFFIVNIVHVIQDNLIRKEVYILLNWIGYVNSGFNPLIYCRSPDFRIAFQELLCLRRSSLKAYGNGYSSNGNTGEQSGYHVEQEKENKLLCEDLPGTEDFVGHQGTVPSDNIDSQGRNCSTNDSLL

SMILES | EC50 [1] [nM] | EC50 [2] [nM] | Average pEC50 [Receptor subtype: Endogenous; Cell type: 1321N1] [3]
CC(C)(C)NC[C@H](O)c1cncc2[nH]ncc12 [Compound 04-153] | 10 to 100 | > 1000 | 
CC(C)(C)NC[C@H](O)c1cnc(N)c(Cl)c1 [Compound 02-1] |  |  | C (C =< 7-6)
CC(C)(C)NC[C@@H](O)c1cccc(N)n1 [Compound 02-6] |  |  | C (C =< 7-6)
CC(C)(C)NC[C@@H](O)c1cccc(O)n1 [Compound 02-8] |  |  | D (D < 6)
CC(C)(C)NC[C@H](O)c1cccc(O)n1 [Compound 02-7] |  |  | D (D < 6)

Reference: patent US20260347322A1, “BETA ADRENERGIC AGONIST AND METHODS OF USING THE SAME” (CuraSen Therapeutics, Inc., priority 2019, published 2026)
